Source: patent US6462089B1, “Method for correcting the vigilance disorders associated with myopathies” (priority 2000, dated 2002)

What was measured:
[1] = system: patients suffering from Steinert's disease (myotonic dystrophy); conditions: cited from earlier work
c-fos proto-oncogene = conditions: cats, awakening doses; Lin et al. PNAS 1996; cited from earlier work
[2] = system: patients suffering from myotonic dystrophy; assay: Oral modafinil treatment of a series of patients with myotonic dystrophy and diurnal hypersomnia, subjective effect; assay type: in vivo, human; conditions: oral doses of between 100 and 400 mg/day; majority of patients
[3] = system: patient suffering from Steinert's disease; assay: Epworth somnolence scale in a patient suffering from Steinert's disease; assay type: in vivo, human; conditions: score before treatment 20
Method: By way of example, in a patient suffering from Steinert's disease, which is characterized, inter alia, by a temporal atrophy, ptosis, a myotony associated with muscle weakness, behavioural disorders and somnolence (the start of which went back to 1988) with sleep paralyses, without hypnogogic hallucinations or attacks of cataplexy, a decrease was observed of 18 units on the Epworth somnolence scale (see Johns M. W. Sleep, 1991, 14, 540) after treatment with an oral dose of 100 mg per day of modafinil for six months, between February 1999 (score on the Epworth scale=20) and August 1999 (score on the Epworth scale=2).

[4] = system: patients suffering from Steinert's disease; assay: Karolinska KSS somnolence scale in patients suffering from Steinert's disease; assay type: in vivo, human
Excerpt: In the second patient of this series, the telling morphotype and a myotony of both hands associated with muscular deficiency existed. Without treatment, diurnal hypersomnia was very pronounced (Epworth scale: 16).

dopamine = conditions: within the dose ranges which modify consciousness; cited from earlier work
[5] = cited from earlier work

COC(=O)C(c1ccccc1)C1CCCCN1 (stereo not shown) [methylphenidate]
level of consciousness ([1]; Van der Meché et al. 1986): improvement in the level of consciousness was observed
expression of c-fos proto-oncogene in the central dopaminergic projection zones (including the cortex) (c-fos proto-oncogene): highly expressed

C[C@H](N)Cc1ccccc1 [d-amphetamine]
expression of c-fos proto-oncogene in the central dopaminergic projection zones (including the cortex) (c-fos proto-oncogene): highly expressed

C#CCN(C)[C@H](C)Cc1ccccc1 [selegiline]
effectiveness on diurnal hypersomnolence ([1]; dose of 20 mg/day, Antonini et al. 1997): ineffective

NC(=O)C[S+]([O-])C(c1ccccc1)c1ccccc1 (stereo not shown) [modafinil, benzhydrylsulphinylacetamide]
effect of treatment on vigilance disorders and diurnal somnolence [2]: subjectively effective
score on the Epworth scale after treatment ([3]; oral dose of 100 mg per day for six months (August 1999)): 2
decrease on the Epworth somnolence scale ([3]; oral dose of 100 mg per day for six months): 18 units
personal and professional daily life ([4]; patient, dose 200 mg/day): considerable improvement
somnolence score on the Karolinska KSS scale after treatment ([4]; patient, dose 200 mg/day, before: 8): 2
diurnal somnolence attacks ([4]; second patient, dose 600 mg/day): partial resolution
somnolence score on the Karolinska scale after treatment ([4]; second patient, dose 600 mg/day, before: 8): 4
effect on dopamine (dopamine): no effect
expression of c-fos proto-oncogene in the central dopaminergic projection zones (including the cortex) (c-fos proto-oncogene): not expressed
generalization of the effects with amphetamine ([5]; addictive substance discrimination tests): very weak
self-administration and preference of place ([5]; in vivo): leads neither to self-administration nor to preference of place
self-administration of cocaine ([5]; in vivo): does not modify
